The values below come from patent US12070445B2, “System and assay for monitoring production/release of membrane-lytic toxins in bacteria and compounds for modulating same” (priority 2021, dated 2024).

Entries after “also recorded” stand apart in the source; their conditions may differ.

Broadly, the IC50 is the concentration needed to halve the response being measured. High values mean weaker potency in that assay, low ones greater potency in that assay.

In one assay the test system is agr. The assay is described as follows: agr YFP transcriptional reporter assay (S. aureus AH1677 with pDB59). The assay is classed as cell-based. The settings on record: Staphylococcus aureus. Here is the method:
Bacterial strains and culture. All bacteria were grown at 37° C. with 200 rpm shaking unless otherwise specified. S. aureus and P. aeruginosa were grown in BHI medium and LB medium, respectively. S. aureus AH1677 (with an agr-YFP reporter plasmid) and P. aeruginosa PAO1-PGSC (with a plasI-LVAgfp reporter plasmid) were used as QS transcriptional reporters and grown with 10 μg/mL chloramphenicol and 300 μg/mL carbenicillin, respectively. All other strains were grown without supplemental antibiotic. S. aureus RN6390b and P. aeruginosa PAO1-PGSC were used as WT strains in vesicle lysis experiments, while S. aureus RN9222 and P. aeruginosa PAO-JG35 were used as QS mutants. RN9222 was grown without antibiotic as it was not used as a reporter strain (i.e., it served only as QS mutant).
High-throughput screening and follow-up analysis protocols. Test compounds and positive control 1 were delivered in 2.5 nL aliquots of DMSO with an Echo 550 liquid handler (LabCyte Inc.) into black 384-well microtiter plates (Corning). All test compounds were tested at 10 μM; positive control 1 was tested at 250 nM. DMSO was used as a negative control. Overnight cultures (2 mL) of WT S. aureus (RN6390b) were grown at 37° C. with shaking at 200 rpm. These cultures were diluted 1:500 (v/v) in fresh BHI medium, at which point vesicle solutions were added to a final concentration of 1 mM phospholipid (as determined by ^31P NMR analyses). This vesicle-cell mixture was then added to the 384-well microtiter plates with a Multidrop 384 liquid-dispensing robot (Thermo Scientific) for a total volume of 50 μL per well. Plates were incubated statically for ˜24 hr at 37° C., at which point fluorescence (excitation 483, emission 530) and OD600 (absorbance at 600 nm) measurements were made using a CLARIOstarR Plus microtiter plate reader (BMG Labtech) running MARS data analysis software. Scatter plots were generated using the Collaborative Drug Discovery Vault informatics platform. The dose-response experiment using the vesicle lysis assay was performed in a 384-well plate in technical duplicate with compound concentrations of 0.1, 0.25, 0.5, 1, 2.5, 5, 10, and 20 μM. Dose-response curves were generated using variable slope (4 parameter) non-linear regression analysis for compound inhibition using GraphPad Prism software (v. 9). Analysis of the QS modulatory activity of the HTS hits and 6 (savirin) was performed using the S. aureus YFP transcriptional reporter strain. HTS hits were purchased directly from Life Chemicals, Inc. DMSO stock solutions (10 mM) of each compound were prepared and stored at −20° C. Serial dilutions (1:3) were prepared from the stock solutions in DMSO, and 2 μL aliquots of the resulting dilutions were added to the wells of black 96-well microtiter plates (Corning). Overnight cultures of the S. aureus reporter strain (2 mL) were grown at 37° C. with shaking at 200 rpm. Cultures were diluted 1:50 (v/v) into fresh BHI medium, and 198 μL of this diluted culture were added to each well containing compound, for a total volume of 200 μL per well. All plates contained a vehicle control consisting of 2 μL of DMSO and 198 μL of culture and a media control consisting of 200 μL BHI. Plates were incubated for ˜24 hours at 37° C. with shaking at 200 rpm. Fluorescence (excitation 510, emission 544) and OD600 measurements were acquired with a PerkinElmer EnVision microtiter plate reader running Envision Manager software. Background fluorescence from BHI control was subtracted from raw fluorescence reads, OD600 corrected, and finally normalized to vehicle control. Dose-response curves and IC50 values were generated using 3-parameter non-linear regression analysis for compound inhibition using GraphPad Prism software (v. 9). All compounds were tested in technical triplicate with at least 3 biological replicates.
(A reporter such as luciferase makes a cellular process visible.)
`Cc1nn2c(C3CCCC3)cc(C(=O)O)nc2c1-c1ccccc1` [Compound 16] gave an IC50 of 840 nM. Same read-out and setting: the figure for `Cc1nn2c(C(C)(C)C)cc(C(=O)O)nc2c1-c1ccccc1` [Compound 17] is 480 nM; for `Cc1nn2c(C3CCC3)cc(C(=O)O)nc2c1-c1ccccc1` [Compound 14] it is 980 nM; for `CCCc1cc(C(=O)O)nc2c(-c3ccccc3)c(C)nn12` [Compound 12] it is 2580 nM. Still for that read-out and setting: the value for `CCc1cc(C(=O)O)nc2c(-c3ccccc3)c(C)nn12` [Compound 15] was 7670 nM; that for `Cc1nn2c(C3CC3)cc(C(=O)O)nc2c1-c1ccccc1` [Compound 13] was 3350 nM.

The next assay relates to WT S. aureus (RN6390b). In words: Microtiter plate (96-well) vesicle lysis assay with WT S. aureus. The assay is classed as cell-based. The settings on record: all compounds at 100 nM, 12 hr. Here is the method:
(§1) Compound handling and preparation. OdDHL and BHL (Hodgkinson et al., 2011), S. aureus AIP and peptide derivatives 1-5 (Tal-Gan et al., 2013, Tal-Gan et al., 2016, Vasquez and Blackwell, 2019), and compounds 7-9 (Welsh and Blackwell, 2016a, Boursier et al., 2018, Manson et al., 2020) were synthesized using previously described methods. PQS and compound 6 were purchased from Millipore Sigma and AK Scientific respectively. Compounds were stored dry at −20° C. until needed and then dissolved in DMSO. DMSO stock solutions were prepared at concentrations that varied with compound potency and apparent solubility. Final in-well compound concentrations for 96-well vesicle lysis assays, unless noted otherwise, were: 10 μM for AIP, OdDHL, and PQS; 1 mM for BHL; 100 nM for 1-4; 10 μM for 5; 20 μM for 6; 100 μM for 7 and 8; and 200 μM for 9.
(§2) Production of phospholipid vesicles with encapsulated calcein. Large unilamellar vesicles (LUVs) were produced by adapting a freeze-thaw and vesicle extrusion procedure (Mayer et al., 1986). Briefly, stock solutions of phospholipids (DOPC, DPPC, DPPE, or cholesterol) in chloroform were mixed to the desired lipid compositions (70 mol % DOPC/30 mol % cholesterol for S. aureus vesicles or 68 mol % DPPC, 30 mol % cholesterol, 2 mol % DPPE for P. aeruginosa vesicles), and the chloroform was removed using an N2 stream or rotary evaporation followed by drying for at least one hour under vacuum. Self-quenching solutions of calcein were prepared by combining calcein and PBS or a specially prepared calcein buffer (1 mM EDTA, 10 mM Trisbase, and 100 mM NaCl; pH 8) to a calcein concentration of […]. The resulting solutions were titrated with 10 M aqueous NaOH until all calcein was dissolved and the solution reached pH 7.4 or pH 8 for PBS and the calcein buffer, respectively. The resulting calcein solutions were added to the dried phospholipid films (PBS for S. aureus formulations and the calcein buffer for the P. aeruginosa formulations) for a final lipid concentration of 5 mg/mL. The resulting lipid solutions were vortexed vigorously and briefly sonicated in a bath sonicator to form a turbid vesicle suspension. The vesicle suspensions were then freeze-thawed five times by alternately immersing them into an iPrOH/dry ice bath and a warm water bath (˜60° C.). Vesicles prepared for continuous time-course experiments were passed at least 5 times through a 100 nm polycarbonate filter using a Mini-prep extruder. Vesicles prepared for the high-throughput screen were passed through the filter 3 times. The resulting vesicles were then separated from external, unloaded calcein using a hand-packed Sephadex-G50 size exclusion chromatography column. The concentration of phospholipid in the solution was quantified using ^31P NMR (per the above protocol), and the phospholipid concentration was adjusted to 2 mM for unsaturated lipid solutions and 1 mM for saturated lipid solutions in their respective buffers. The resulting vesicles were characterized by dynamic light scattering and found to have a hydrodynamic diameter of ˜150 nm (FIGS. 3A-3C), which agrees with previous reports describing vesicle production using a similar method (Lapinski et al., 2007).
Microtiter plate vesicle lysis assays. Portions of media (2 or 10 mL) were inoculated with individual bacterial colonies and allowed to shake overnight. From these overnight cultures, subcultures were prepared by diluting the cultures 1:50 (v/v) in fresh BHI for S. aureus or 1:100 (v/v) in fresh LB for P. aeruginosa. An aliquot of each subculture (178 μL) was added to 20 μL of vesicle suspension and 2 μL of compound solution (dissolved in DMSO at 100× working concentration) in a clear-bottomed, black 96-well microtiter plate (Corning 3904). For controls, DMSO (vehicle) or Triton X-100 (1% final concentration) was substituted for compound. […]
For the compound AIP III D4A amide [Compound 2], the “calcein leakage with agr inhibitors at equivalent concentration” value is given as “delayed response”. For tr. AIP III D2A amide [Compound 4], the “calcein leakage with agr inhibitors at equivalent concentration” value was “delayed response”. The same measure, in the same setting: the value for tr. AIP III D2A [Compound 3] was “completely prevent calcein leakage”.

The next assay relates to WT P. aeruginosa (PAO1-PGSC). The assay is described as follows: Microtiter plate (96-well) vesicle lysis assay with WT P. aeruginosa. The conditions noted are these: 10 μM OdDHL and PQS, 1 mM BHL, 200 μM 9. The assay is classed as cell-based. On the procedure: as §1, §2
Microtiter plate vesicle lysis assays. Portions of media (2 or 10 mL) were inoculated with individual bacterial colonies and allowed to shake overnight. […]
Take `CCCCCCCCCC(=O)CC(=O)N[C@H]1CCOC1=O` [OdDHL, N-(3-oxo-dodecanoyl)-L-homoserine lactone]: the “effect on vesicle lysis / dye leakage (fluorescence over 12 hr)” value is recorded as “no observable influence on levels of fluorescence; also recorded: no observable effect”. On the same count and under the same terms, the entry for `CCCCCCCc1[nH]c2ccccc2c(=O)c1O` [PQS, Pseudomonas quinolone signal] is “no observable influence on levels of fluorescence; also recorded: no observable effect”; for `CCCC(=O)N[C@H]1CCOC1=O` [BHL, N-butyryl-Lhomoserine lactone] it is “earlier onset of dye leakage; also recorded: facilitate vesicle lysis”.
